Data set [1] concerns CYP3A. Particulars: avian; for % of control (catalytic activity at 2-fold IC50) / Catalytic activity at 2-fold IC50: compound at estimated 2-fold IC50 (5 µM where none reported); for % of control (catalytic activity at IC50): compound at estimated IC50 (1 µM where none reported).
Procedure: (§1) Possums were collected from the Otago Peninsula (Dunedin) and the Okuti Valley, Banks Peninsula (Christchurch) in New Zealand in collaboration with the Otago Peninsula Biodiversity Group and Manaaki Whenua-Landcare Research, respectively. […] Possums were caged and humanely killed by a blow to the head, and the livers were harvested, snap-frozen in liquid nitrogen, and stored in a freezer at −80 °C until the preparation of microsomal fractions. […] Mice were euthanised by carbon dioxide inhalation and the livers were removed and microsomes prepared. […] The livers from avian species (mallards and a swan) were kindly donated by a local bird hunting group based in Dunedin, New Zealand. The livers from avian species were treated similarly to those mentioned above for the possum samples.
(§2) Microsomal preparation was carried out as previously described [76]. […] All procedures were performed at 0–4 °C. The liver samples were minced and homogenised in Buffer A (0.1 M Tris, 0.1 M potassium chloride, 1 mM EDTA, and 20 μM butylated hydroxytoluene, at pH = 7.4) using the Teflon-glass homogeniser (5–6 vertical passes). The samples were centrifuged at 10,000× g for 20 min. The supernatant was then transferred into another set of centrifuge tubes and spun at 100,000× g for 60 min. The pellet was resuspended in Buffer B (0.1 M potassium pyrophosphate, 1 mM EDTA, and 20 μM butylated hydroxytoluene, at pH = 7.4), homogenised, and recentrifuged at 100,000× g for 60 min. Finally, the pellet was homogenised in 1–2 mL of Buffer C (10 mM Tris-HCl, 1 mM EDTA, and 4% glycerol (v/v)), and stored at −80 °C until use. The protein concentration of the microsomes was determined using the bicinchoninic acid (BCA) method [77].
(§3) CYP3A catalytic activity was determined using the erythromycin N-demethylation activity assay, as described [78]. The reaction mixture (final volume of 1 mL and final protein concentration of 1 mg) contained 500 µL of microsomes in 0.1 M phosphate buffer (pH 7.4) and 400 µL of erythromycin buffer (0.45 mM), and 50 µL of the test compound was pre-warmed at 37 °C for 2 min. The reaction was initiated with 50 µL of 2.5 mM nicotinamide adenine dinucleotide phosphate (NADP^+) and incubated for 30 min at 37 °C. […] The tubes were vortexed and left for 5 min (at room temperature), and then 330 µL of saturated barium hydroxide was added. The tubes were further vortexed and left for 5 min (at room temperature). The tubes were then centrifuged at 1800× g for 10 min. To 830 µL of the supernatant, 330 µL of Nash reagent (30% (w/v) ammonium acetate, 0.4% (v/v) acetylacetone) was added and further incubated for 30 min at 60 °C. The blank tube contained 330 µL of Nash reagent and 830 µL of Milli-Q water. […] The CYP3A activities were determined in nmol/mg/min using standard curve data. Results presented are the mean ± SEM of 3 independent experiments performed in duplicate unless otherwise stated.
In data set [2] the test system is CYP3A. Kind of data set: CYP3A catalytic activity (erythromycin N-demethylation) in mouse liver microsomes. To be noted: for Percent control catalytic activity at estimated IC50 / Percent control catalytic activity at estimated 2-fold IC50: mouse liver microsomes, initial screen n=1; for Percent control catalytic activity at estimated IC50: compounds without reported IC50 at 1 µM; for Percent control catalytic activity at estimated 2-fold IC50: compounds without reported IC50 at 5 µM; for % of control (catalytic activity at 2-fold IC50) / Catalytic activity at 2-fold IC50 / % of control (catalytic activity at IC50) / inhibition of CYP3A catalytic activities at higher concentration: mouse; for % of control (catalytic activity at 2-fold IC50) / Catalytic activity at 2-fold IC50: compound at estimated 2-fold IC50 (5 µM where none reported); for % of control (catalytic activity at IC50): compound at estimated IC50 (1 µM where none reported); for inhibition of CYP3A catalytic activities at higher concentration: 10 µM.
Procedure: as §1, §2, §3

Data set [3] concerns CYP3A. In words: CYP3A catalytic activity (erythromycin N-demethylation) in possum liver microsomes. To be noted: for Percent control catalytic activity at estimated IC50 / Percent control catalytic activity at estimated 2-fold IC50: possum liver microsomes, initial screen n=1; for Percent control catalytic activity at estimated IC50: compounds without reported IC50 at 1 µM; for Percent control catalytic activity at estimated 2-fold IC50: compounds without reported IC50 at 5 µM; for % of control (catalytic activity at 2-fold IC50) / Catalytic activity at 2-fold IC50 / % of control (catalytic activity at IC50) / inhibition of CYP3A catalytic activities at higher concentration / reduced catalytic activity of possum CYP3A, % of the control: possum; for % of control (catalytic activity at 2-fold IC50) / Catalytic activity at 2-fold IC50: compound at estimated 2-fold IC50 (5 µM where none reported); for % of control (catalytic activity at IC50): compound at estimated IC50 (1 µM where none reported); for inhibition of CYP3A catalytic activities at higher concentration: 10 µM; for reduced catalytic activity of possum CYP3A, % of the control: mainly at 5 µM or an estimated 2-fold IC50, not significantly different.
Procedure: as §1, §2, §3

The test system of data set [4] is CYP3A. In words: CYP3A catalytic activity (erythromycin N-demethylation) in pooled human liver microsomes. Particulars: for % of control (catalytic activity at 2-fold IC50) / Catalytic activity at 2-fold IC50: compound at estimated 2-fold IC50 (5 µM where none reported).
Procedure: as §3

Read-outs that look alike come from different tables or passages of the source.

As to `CC(=O)c1ccccc1O` [2'-Hydroxyacetophenone], in data set [1], the “% of control (catalytic activity at 2-fold IC50)” value is reported as 102 % of control, the “Catalytic activity at 2-fold IC50” value is 0.36 ± 0.05 nmol/mg/min and the “% of control (catalytic activity at IC50)” value is 101 % of control. Moreover, in data set [2], the “Percent control catalytic activity at estimated IC50” value was 112 percent control, the “Percent control catalytic activity at estimated 2-fold IC50” value is 80 percent control, the “% of control (catalytic activity at 2-fold IC50)” value is 75 % of control and the “Catalytic activity at 2-fold IC50” value is 0.35 ± 0.05 nmol/mg/min. Moreover, in data set [2], the “% of control (catalytic activity at IC50)” value is listed as 129 % of control. In data set [3], the “Percent control catalytic activity at estimated IC50” value was 108 percent control, the “Percent control catalytic activity at estimated 2-fold IC50” value was 105 percent control, the “% of control (catalytic activity at 2-fold IC50)” value is given as 102 % of control and the “Catalytic activity at 2-fold IC50” value is 0.29 ± 0.05 nmol/mg/min. Besides, in data set [3], the “% of control (catalytic activity at IC50)” value is listed as 120 % of control.
With `O=C1c2ccccc2C(=O)c2c1ccc(O)c2O` [Alizarin], in data set [1], the “% of control (catalytic activity at 2-fold IC50)” value was 94 % of control and the “Catalytic activity at 2-fold IC50” value was 0.30 ± 0.04 nmol/mg/min. In addition, in data set [2], the “Percent control catalytic activity at estimated IC50” value is recorded as 91 percent control, the “Percent control catalytic activity at estimated 2-fold IC50” value is reported as 89 percent control, the “inhibition of CYP3A catalytic activities at higher concentration” value (from here on “inhibition of CYP3A catalytic activities”) is reported as “did not show any significant inhibition” and the “% of control (catalytic activity at 2-fold IC50)” value is 96 % of control. The “Catalytic activity at 2-fold IC50” value in data set [2] was 0.57 ± 0.06 nmol/mg/min. In addition, in data set [3], the “Percent control catalytic activity at estimated IC50” value is on record as 70 percent control, the “Percent control catalytic activity at estimated 2-fold IC50” value is 77 percent control, the “inhibition of CYP3A catalytic activities” value is recorded as “did not show any significant inhibition” and the “% of control (catalytic activity at 2-fold IC50)” value is listed as 84 % of control. In data set [3], the “Catalytic activity at 2-fold IC50” value was 0.27 ± 0.01 nmol/mg/min and the “reduced catalytic activity of possum CYP3A, % of the control” value is on record as ~ 35 % of the control. Also, in data set [4], the “% of control (catalytic activity at 2-fold IC50)” value was 98 % of control and the “Catalytic activity at 2-fold IC50” value is listed as 0.57 nmol/mg/min.
`CCc1oc2ccccc2c1C(=O)c1cc(Br)c(O)c(Br)c1` [Benzbromarone]: in data set [1], the “% of control (catalytic activity at 2-fold IC50)” value is on record as 104 % of control and the “Catalytic activity at 2-fold IC50” value was 0.34 ± 0.01 nmol/mg/min. Besides, in data set [2], the “Percent control catalytic activity at estimated IC50” value is listed as 97 percent control, the “Percent control catalytic activity at estimated 2-fold IC50” value is 96 percent control, the “inhibition of CYP3A catalytic activities” value is listed as “did not show any significant inhibition” and the “% of control (catalytic activity at 2-fold IC50)” value is listed as 97 % of control. The “Catalytic activity at 2-fold IC50” value in data set [2] was 0.57 ± 0.08 nmol/mg/min. In data set [3], the “Percent control catalytic activity at estimated IC50” value was 83 percent control, the “Percent control catalytic activity at estimated 2-fold IC50” value is recorded as 78 percent control, the “inhibition of CYP3A catalytic activities” value is on record as “did not show any significant inhibition” and the “% of control (catalytic activity at 2-fold IC50)” value is listed as 80 % of control. In data set [3], the “Catalytic activity at 2-fold IC50” value is 0.26 ± 0.02 nmol/mg/min and the “reduced catalytic activity of possum CYP3A, % of the control” value is on record as ~ 35 % of the control. Also, in data set [4], the “% of control (catalytic activity at 2-fold IC50)” value is given as 113 % of control and the “Catalytic activity at 2-fold IC50” value is recorded as 0.37 nmol/mg/min.
As for `C/C1=C/CC[C@H](C)C(=O)C[C@@H](C(C)C)C(=O)C1` [Curdione], in data set [1], the “% of control (catalytic activity at 2-fold IC50)” value is reported as 99 % of control, the “Catalytic activity at 2-fold IC50” value is 0.41 ± 0.04 nmol/mg/min and the “% of control (catalytic activity at IC50)” value was 97 % of control. Also, in data set [2], the “Percent control catalytic activity at estimated IC50” value is on record as 143 percent control, the “Percent control catalytic activity at estimated 2-fold IC50” value is listed as 134 percent control, the “% of control (catalytic activity at 2-fold IC50)” value is recorded as 94 % of control and the “Catalytic activity at 2-fold IC50” value was 0.38 ± 0.05 nmol/mg/min. Further, in data set [2], the “% of control (catalytic activity at IC50)” value was 114 % of control. Further, in data set [3], the “Percent control catalytic activity at estimated IC50” value is on record as 92 percent control, the “Percent control catalytic activity at estimated 2-fold IC50” value was 103 percent control, the “% of control (catalytic activity at 2-fold IC50)” value was 99 % of control and the “Catalytic activity at 2-fold IC50” value was 0.37 ± 0.03 nmol/mg/min. In addition, in data set [3], the “% of control (catalytic activity at IC50)” value is 91 % of control.
As to `C[C@]12CC[C@H](O)CC1=CC[C@@H]1[C@@H]2CC[C@]2(C)C(n3cnc4ccccc43)=CC[C@@H]12` [Galeterone], in data set [1], the “Catalytic activity at 2-fold IC50” value was 0.36 ± 0.04 nmol/mg/min. In data set [2], the “Percent control catalytic activity at estimated IC50” value is 88 percent control, the “Percent control catalytic activity at estimated 2-fold IC50” value is on record as 86 percent control, the “inhibition of CYP3A catalytic activities” value is “did not show any significant inhibition” and the “% of control (catalytic activity at 2-fold IC50)” value was 105 % of control. Moreover, the “Catalytic activity at 2-fold IC50” value in data set [2] was 0.63 ± 0.10 nmol/mg/min. In data set [3], the “Percent control catalytic activity at estimated IC50” value is 76 percent control, the “Percent control catalytic activity at estimated 2-fold IC50” value was 80 percent control, the “inhibition of CYP3A catalytic activities” value was “did not show any significant inhibition” and the “% of control (catalytic activity at 2-fold IC50)” value is on record as 83 % of control. Also, in data set [3], the “Catalytic activity at 2-fold IC50” value is 0.32 ± 0.02 nmol/mg/min and the “reduced catalytic activity of possum CYP3A, % of the control” value is ~ 35 % of the control. Moreover, in data set [4], the “% of control (catalytic activity at 2-fold IC50)” value is 114 % of control and the “Catalytic activity at 2-fold IC50” value was 0.61 nmol/mg/min. Also, the activity at 30 min in data set [4] (human, pH 7.4, probe erythromycin, % of control (catalytic activity at IC50), compound at estimated IC50 (1 µM where none reported)) is 99%.
Turning to `C=C[C@@H]1C2=CCOC(=O)C2=CO[C@H]1O[C@@H]1O[C@H](CO)[C@@H](O)[C@H](O)[C@H]1O` [Gentiopicroside], in data set [1], the “% of control (catalytic activity at 2-fold IC50)” value is 114 % of control and the “Catalytic activity at 2-fold IC50” value is 0.32 ± 0.03 nmol/mg/min. For the same molecule, in data set [2], the “Percent control catalytic activity at estimated IC50” value is listed as 92 percent control, the “Percent control catalytic activity at estimated 2-fold IC50” value is reported as 85 percent control, the “inhibition of CYP3A catalytic activities” value is recorded as “did not show any significant inhibition” and the “% of control (catalytic activity at 2-fold IC50)” value is listed as 97 % of control. The “Catalytic activity at 2-fold IC50” value in data set [2] was 0.56 ± 0.12 nmol/mg/min. Further, in data set [3], the “Percent control catalytic activity at estimated IC50” value was 98 percent control, the “Percent control catalytic activity at estimated 2-fold IC50” value is listed as 83 percent control, the “inhibition of CYP3A catalytic activities” value was “did not show any significant inhibition” and the “% of control (catalytic activity at 2-fold IC50)” value is 82 % of control. Further, in data set [3], the “Catalytic activity at 2-fold IC50” value was 0.29 ± 0.02 nmol/mg/min and the “reduced catalytic activity of possum CYP3A, % of the control” value is reported as ~ 35 % of the control. For the same molecule, in data set [4], the “% of control (catalytic activity at 2-fold IC50)” value is listed as 122 % of control and the “Catalytic activity at 2-fold IC50” value was 0.54 nmol/mg/min.
With `COc1cc2c(=O)c3c(O)c([C@@H]4O[C@H](CO[C@@H]5OC[C@](O)(CO)[C@H]5O)[C@@H](O)[C@H](O)[C@H]4O)c(O)cc3oc2cc1O` [Polygalaxanthone III], in data set [2], the “Percent control catalytic activity at estimated IC50” value is 92 percent control and the “Percent control catalytic activity at estimated 2-fold IC50” value is 94 percent control. For the same molecule, in data set [3], the “Percent control catalytic activity at estimated IC50” value is on record as 102 percent control and the “Percent control catalytic activity at estimated 2-fold IC50” value is recorded as 108 percent control.
The like results for `CC[C@@H]([C@H](C)O)n1ncn(-c2ccc(N3CCN(c4ccc(OC[C@@H]5CO[C@@](Cn6cncn6)(c6ccc(F)cc6F)C5)cc4)CC3)cc2)c1=O` [Posaconazole] were, in that order, 101 percent control, 74 percent control, 93 percent control and 92 percent control.
The like results for `O=C([O-])C(O)Cc1ccc(O)c(O)c1.[Na+]` (centres unmarked) [Sodium Danshensu] were, in that order, 98 percent control, 107 percent control, 116 percent control and 118 percent control.
As to `CC(C)(C)C(O)/C=C/c1ccc2c(c1)OCO2` (centres unmarked) [Stiripentol], the “Percent control catalytic activity at estimated IC50” value in data set [2] is given as 119 percent control; in data set [3], 109 percent control. In addition, the “Percent control catalytic activity at estimated 2-fold IC50” value in data set [2] is recorded as 102 percent control; in data set [3], 105 percent control.
The like results for `c1ccc2[nH]c(-c3cscn3)nc2c1` [Thiabendazole] were, in that order, 85 percent control, 94 percent control, 95 percent control and 92 percent control.
On the same counts, the results for `CC(C)(C)C(O)/C(=C\c1ccc(Cl)cc1)n1cncn1` (centres unmarked) [Uniconazole] are 67 percent control, 82 percent control, 40 percent control and 84 percent control.

The values above are taken from paper PMC10253456, “Investigating the Contribution of Major Drug-Metabolising Enzymes to Possum-Specific Fertility Control” (International Journal of Molecular Sciences, 2023).
